Data taken from ChEMBL document CHEMBL1201862, “PubChem BioAssay data set” (2004).
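Five concentrations, 48 hours, 96-well plates. GI50 marks 50% less growth.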 Calls of active or inactive are those of the source. No stated cut-off is given here; in the data, active = GI50 up to about 1.1 µM and inactive = higher.

Columns and labels:
Assay in all cases: NCI tumour cell line growth inhibition, 48 h
CAKI-1 = tested on: CAKI-1
DU-145 = tested on: DU-145
HCT-116 = tested on: HCT-116
K562 = tested on: K562
KM12 = tested on: KM12
MDA-MB-231 = tested on: MDA-MB-231
MDA-N = tested on: MDA-N
MOLT-4 = tested on: MOLT-4
Malme-3M = tested on: Malme-3M
NCI-H460 = tested on: NCI-H460
NCI-H522 = tested on: NCI-H522
PC-3 = tested on: PC-3
RPMI-8226 = tested on: RPMI-8226
SK-MEL-28 = tested on: SK-MEL-28
SNB-19 = tested on: SNB-19
TK-10 = tested on: TK-10
UACC-62 = tested on: UACC-62
CCRF-CEM = tested on: CCRF-CEM
LOX IMVI = tested on: LOX IMVI

Structure (SMILES) | GI50 (CAKI-1) | GI50 (DU-145) | GI50 (HCT-116) | GI50 (K562) | GI50 (KM12) | GI50 (MDA-MB-231) | GI50 (MDA-N) | GI50 (MOLT-4) | GI50 (Malme-3M) | GI50 (NCI-H460) | GI50 (NCI-H522) | GI50 (PC-3) | GI50 (RPMI-8226) | GI50 (SK-MEL-28) | GI50 (SNB-19) | GI50 (TK-10) | GI50 (UACC-62) | GI50 (CCRF-CEM) | GI50 (LOX IMVI)
O=C1c2ccccc2C(=O)c2c(NC(=O)c3ccc4c5c(ncnc35)-c3ccccc3C4=O)cccc21 | > 100 µM (inactive) | > 100 µM (inactive) | > 100 µM (inactive) | > 100 µM (inactive) | > 100 µM (inactive) | 32.4 µM (inactive) | > 100 µM (inactive) | > 100 µM (inactive) | > 100 µM (inactive) | > 100 µM (inactive) | > 100 µM (inactive) | > 100 µM (inactive) | > 100 µM (inactive) | > 100 µM (inactive) | 33.9 µM (inactive) | 21.8 µM (inactive) | > 100 µM (inactive) |  | 
O=C(O)c1cc2c(cc1S(=O)(=O)O)C1C(C3C2C2(Cl)C(Cl)=C(Cl)C3(Cl)C2(Cl)Cl)C2(Cl)C(Cl)=C(Cl)C1(Cl)C2(Cl)Cl (stereo not given) | > 100 µM (inactive) | 48.1 µM (inactive) | 17.4 µM (inactive) | 34.3 µM (inactive) | 51.4 µM (inactive) | 24.4 µM (inactive) | 31.4 µM (inactive) | 27.6 µM (inactive) | 64.7 µM (inactive) | 34.6 µM (inactive) | 17.7 µM (inactive) | 41 µM (inactive) | 32.6 µM (inactive) | 37.1 µM (inactive) | 47.4 µM (inactive) | > 100 µM (inactive) | 21.9 µM (inactive) | 0.173 µM (active) | 
CCSC1=N/C(=C\c2ccc(N(C)C)cc2)C(Cl)=N1 | > 100 µM (inactive) | > 100 µM (inactive) | > 100 µM (inactive) |  | > 100 µM (inactive) | > 100 µM (inactive) | > 100 µM (inactive) | > 100 µM (inactive) | > 100 µM (inactive) | > 100 µM (inactive) | > 100 µM (inactive) | > 100 µM (inactive) | 59.3 µM (inactive) | > 100 µM (inactive) | > 100 µM (inactive) | > 100 µM (inactive) | > 100 µM (inactive) | > 100 µM (inactive) | 
Cc1cc2c(O)nc(N)nc2nc1C | > 100 µM (inactive) | > 100 µM (inactive) | > 100 µM (inactive) | > 100 µM (inactive) | > 100 µM (inactive) | > 100 µM (inactive) | > 100 µM (inactive) |  | > 100 µM (inactive) | > 100 µM (inactive) | > 100 µM (inactive) | > 100 µM (inactive) | > 100 µM (inactive) | > 100 µM (inactive) | > 100 µM (inactive) | > 100 µM (inactive) | > 100 µM (inactive) | > 100 µM (inactive) | > 100 µM (inactive)
NCC(=O)Nc1ccccc1 | > 100 µM (inactive) | > 100 µM (inactive) | > 100 µM (inactive) | 60.5 µM (inactive) | > 100 µM (inactive) | 15.5 µM (inactive) | > 100 µM (inactive) | > 100 µM (inactive) | > 100 µM (inactive) | > 100 µM (inactive) | > 100 µM (inactive) | > 100 µM (inactive) |  | > 100 µM (inactive) | > 100 µM (inactive) | > 100 µM (inactive) | > 100 µM (inactive) |  | > 100 µM (inactive)
Cc1nc2c(-c3ccccc3)[nH]c(C)c2c(=O)o1 | 37.2 µM (inactive) | 76.2 µM (inactive) | 45.6 µM (inactive) | 40.1 µM (inactive) | > 100 µM (inactive) | 31.2 µM (inactive) | 45.6 µM (inactive) | 52.5 µM (inactive) |  | > 100 µM (inactive) | 19.7 µM (inactive) | > 100 µM (inactive) | 32.7 µM (inactive) | > 100 µM (inactive) | > 100 µM (inactive) | > 100 µM (inactive) | 23.9 µM (inactive) | > 100 µM (inactive) | 42.5 µM (inactive)
